In patent publication EP4566598A1, “COMPOSITIONS PROVIDING SGLT2I AND BHB ACTIVITY AND METHODS OF USE TO TREAT HUMAN DISEASE” (priority 2023, dated 2025):
Values joined by “and” are separate entries in the source; they are usually repeats but may differ in a detail not shown here. Identical values can stand only once. Like-named read-outs stand apart in the source and are kept apart here.

Assays:
vSMCs = details: via ROS-Nrf2 pathway; cited from earlier work
SGLT2 = target: T1, SGLT2 (Homo sapiens, UniProt P31639); details: cited from earlier work
T1 sequence (P31639 1-672): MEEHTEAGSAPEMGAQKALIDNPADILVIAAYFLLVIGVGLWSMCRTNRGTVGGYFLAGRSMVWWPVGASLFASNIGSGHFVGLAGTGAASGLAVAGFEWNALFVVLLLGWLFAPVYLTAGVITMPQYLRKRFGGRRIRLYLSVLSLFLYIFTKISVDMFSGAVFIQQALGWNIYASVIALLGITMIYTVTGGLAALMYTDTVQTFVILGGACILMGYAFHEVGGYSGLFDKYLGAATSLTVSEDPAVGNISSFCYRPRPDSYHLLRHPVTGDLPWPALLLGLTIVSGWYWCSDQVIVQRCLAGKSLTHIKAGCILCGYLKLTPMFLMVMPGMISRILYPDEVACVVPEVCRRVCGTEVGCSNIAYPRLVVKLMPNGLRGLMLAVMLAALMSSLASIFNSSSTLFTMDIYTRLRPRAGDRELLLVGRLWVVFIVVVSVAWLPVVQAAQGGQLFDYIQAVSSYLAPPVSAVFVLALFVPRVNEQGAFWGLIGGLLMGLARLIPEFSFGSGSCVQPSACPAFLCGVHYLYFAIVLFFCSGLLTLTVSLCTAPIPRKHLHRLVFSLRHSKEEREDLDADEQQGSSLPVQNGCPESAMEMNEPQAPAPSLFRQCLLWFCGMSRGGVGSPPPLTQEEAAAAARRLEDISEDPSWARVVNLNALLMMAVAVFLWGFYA

[1] = cited from earlier work
[2] = cited from earlier work; remark: listed apart in the source
[3] = high-fat diet fed mice; cited from earlier work
[4] = cited from earlier work; remark: listed apart in the source
[5] = cited from earlier work; remark: listed apart in the source
[6] = cited from earlier work; remark: listed apart in the source
[7] = in vivo
AAA [8] = details: PPE induced AAA; cited from earlier work
abdominal PVAT = details: mice fed with Western diet; cited from earlier work
[9] = 28-day study, 28 volunteers; cited from earlier work
AAA [10] = details: murine models; cited from earlier work
AAA [11] = details: apoE-/- Ang II induction model; cited from earlier work
[12] = system: rat aortic smooth muscle cells; details: in vitro; cited from earlier work
[13] = mice; cited from earlier work
human VSMCs = details: dependent on TRAF3IP2/ROS/NLRP3/caspase-1; cited from earlier work

Cc1ccc([C@@H]2O[C@H](CO)[C@@H](O)[C@H](O)[C@H]2O)cc1Cc1ccc(-c2ccc(F)cc2)s1 [Canagliflozin]
expression of heme oxygenase-1 (vSMCs): stimulates | SGLT2 selectivity over SGLT1 (SGLT2): 250 fold | Protein binding [1]: 99% | t1/2 ([2]; 100 mg dose): 10.6 h | t1/2 (hours) ([2]; 100 mg dose): 10.6 (100 mg dose); hours | Bioavailability ([2]; 300 mg dose): 65% (300 mg dose) | t1/2 ([2]; 300 mg dose): 13.1 h | t1/2 (hours) ([2]; 300 mg dose): 13.1 (300 mg dose) hours | tmax ([2]; in vivo): 1 to 2 h

CCOc1ccc(Cc2cc([C@@H]3S[C@H](CO)[C@@H](O)[C@H](O)[C@H]3O)c(OC)cc2C)cc1 [Luseogliflozin]
intimal hyperplasia after bilateral femoral artery wire injury [3]: reducing intimal hyperplasia | SGLT2 selectivity over SGLT1 (SGLT2): 1650 fold | Bioavailability ([4]; male dogs): 97.2% | Bioavailability ([5]; female rats): 58.2% | Cmax ([2]; in vivo): 119 ± 27.0 ng/mL | t1/2 ([2]; in vivo): 9.24 ± 0.928 h | tmax ([2]; in vivo): 0.625 ± 0.354 h

CCc1ccc(Cc2ccc3c(c2)[C@]2(OC3)O[C@H](CO)[C@@H](O)[C@H](O)[C@H]2O)cc1 [Tofogliflozin]
SGLT2 selectivity over SGLT1 (SGLT2): 2900 fold | Protein binding [1]: 83% | Cmax ([2]; 10 mg dose): 489 ng/mL | t1/2 ([2]; 10 mg dose): 6.8 h | Bioavailability ([2]; 10 mg): 97.50% | tmax ([2]; 10 mg): 0.75 h

C[C@H](O)CC(=O)O [S-BHB]
stability in human plasma compared with R/D BHB ([6]; human plasma): far more stable | sustained in plasma, relative to (D/R) BHB ([6]; plasma): more than 2 x | persistence of BHB elevation [7]: 4 to 5 h

CCOc1ccc(Cc2cc([C@@H]3O[C@H](CO)[C@@H](O)[C@H](O)[C@H]3O)ccc2Cl)cc1 [Dapagliflozin, (2S,3R,4R,5S,6R)-2-{4-chloro-3-[(4-ethoxyphenyl)methyl]phenyl}-6-(hydroxymethyl)oxane-3,4,5-triol]
SGLT2 selectivity over SGLT1 (SGLT2): 1200 fold | aneurysmal induction and expansion (AAA [8]): significantly impeded | Bioavailability ([2]; in vivo): 78% | t1/2 ([2]; in vivo): 12.9 h | tmax ([2]; in vivo): 1 to 1.5 h

OC[C@H]1O[C@@H](c2ccc(F)c(Cc3cc4ccccc4s3)c2)[C@H](O)[C@@H](O)[C@@H]1O [Ipragliflozin]
SGLT2 selectivity over SGLT1 (SGLT2): 360 fold | inflammation, fibrosis, and adipocyte death of abdominal PVAT (abdominal PVAT): attenuated | t1/2 (hours) ([2]; 50 mg dose): 15-16 (50 mg dose) hours and 15–16 (50 mg dose) hours | tmax ([2]; 50 mg): 1 h | Bioavailability ([2]; in vivo): 90%

C[C@@H](O)CCOC(=O)C[C@@H](C)O [KE-BHB]
effect on body weights or composition, fasting blood glucose, cholesterol, triglyceride, or electrolyte concentrations, blood gases or kidney function [9]: no effect

C[C@@H](O)CC(=O)O [R-BHB, R-beta hydroxybutyrate]
persistence of BHB elevation [7]: ~ 2.5 hours

CCOc1ccc(Cc2cc([C@]34OC[C@](CO)(O3)[C@@H](O)[C@H](O)[C@H]4O)ccc2Cl)cc1 [Ertugliflozin]
SGLT2 selectivity over SGLT1 (SGLT2): 2000 fold | Protein binding [1]: 95% | Cmax ([2]; 15 mg dose): 268 ng/mL (15 mg dose) | Bioavailability ([2]; in vivo): 70-90% | t1/2 ([2]; in vivo): 11 to 17 h | tmax ([2]; in vivo): 0.5 to 1.5 h

Nc1ccccc1NC(=O)c1ccc(CNC(=O)OCc2cccnc2)cc1 [MS-275]
effect on AAA (AAA [10]): reduce AAA

OC[C@H]1O[C@@H](c2ccc(Cl)c(Cc3ccc(O[C@H]4CCOC4)cc3)c2)[C@H](O)[C@@H](O)[C@@H]1O [Empagliflozin]
effect on AAA (AAA [11]): impedes AAA | aortic smooth muscle cell proliferation [12]: significantly decreased | Bioavailability ([4]; dogs): 89% | Bioavailability [13]: 90-97% and 90–97% | Bioavailability ([5]; rats): 31% | secretion of IL-1b and IL-18 (human VSMCs): inhibits | Cmax ([2]; 10 mg dose): 259 nM | t1/2 ([2]; 10 mg dose): 13.2 h | t1/2 (hours) ([2]; 10 mg dose): 13.2 (10 mg dose); hours | Cmax ([2]; 25 mg dose): 687 nM | t1/2 ([2]; 25 mg dose): 13.3 h | t1/2 (hours) ([2]; 25 mg dose): 13.3h (25 mg dose) hours | tmax ([2]; in vivo): 1.5 h
